Here are results for one compound from patent US20120276064A1, “METHODS AND COMPOSITIONS FOR REJUVENATION AND EXPANSION OF STEM CELLS” (priority 2011, published 2012).

Entries after “also recorded” stand apart in the source; their conditions may differ.

The test system of assay [1] is MuSCs transplanted into tibialis anterior muscle. The assay can be described thus: Transplantation of cultured MuSCs into irradiated NOD/SCID mice, engraftment by bioluminescence imaging. The note with it: for Improvement of transplantation function of MuSCs cultured on rigid hydrogels: young and old MuSCs, rigid (~10^6 kPa) hydrogel, 10 μM, one week, 100 cells transplanted. The format is in vivo, mouse. The protocol: MuSC transplantation. MuSCs were transplanted immediately following FACS isolation or after collection from cell culture directly into the tibialis anterior muscle of recipient mice as previously described. Cells from GFP/Luciferase or Myf5^nLacZl+/Luciferase mice were transplanted into gender-matched, hindlimb-irradiated NOD/SCID (Jackson) mice. NOD/SCID (2-4 months of age, median 2 months) mice were anesthetized with ketamine (2.4 mg per mouse) and xylazine (240 μg per mouse) by intraperitoneal injection then were irradiated by a single dose of 18 Gy administered to the hindlimbs, with the rest of the body shielded in a lead jig. Transplantation was performed within three days post-irradiation. In syngeneic transplant studies, cells from old C57BL/6 mice were transplanted into gender-matched, littermate old C57BL/6 mice (Jackson) following culture for one week on soft hydrogels. Specifically, old C57BL/6 MuSCs were infected with a GFP/Luciferase lentivirus added at day 2 of culture for 24 hours. Recipient old C57BL/6 mice were acutely injured by a single 10 μl intramuscular injection of notexin (10 μg/ml; Latoxan, France) two days prior to cell transplantation, but were not irradiated. Freshly isolated or cultured cells were counted by hemocytometer and resuspended at desired cell concentrations in PBS with 2.5% goat serum and 1 mM EDTA. Cells were collected from hydrogel cultures by incubation with 0.5% trypsin in PBS for 2 min at 37° C. and counted using a hemocytometer. Cells were transplanted by intramuscular injection into the tibialis anterior muscle in a 10 μl volume.
Tissue histology. Recipient tibialis anterior muscle tissues were prepared for histology as previously described to analyze GFP expression. Transverse sections were incubated with anti-laminin (Millipore, Billerica, Calif.), anti-GFP (Invitrogen) antibodies, and/or anti-β-galactosidase (Abcam, Cambridge, Mass.) with appropriate secondary antibodies (Invitrogen). Nuclei were counter-stained with Hoechst 33342 (Invitrogen). Images were acquired with an AxioPlan2 epi-fluorescent microscope (Carl Zeiss Microimaging, Thornwood, N.Y.) with Plan NeoFluar 10×/0.30NA or 20×/0.75NA objectives (Carl Zeiss) and an ORCA-ER digital camera (Hamamatsu Photonics, Bridgewater, N.J.). Digital images were captured in OpenLab software (Improvision, Waltham, Mass.) and assembled in Photoshop software (Adobe, San Jose, Calif.) with consistent contrast adjustments across all images from the same stain.
Bioluminescence imaging. Bioluminescence imaging was performed using a Xenogen-100 system, as previously described. Briefly, mice were anesthetized under isofluorane and 100 μL luciferin (0.1 mmol/kg; Caliper LifeSciences, Hopkinton, Mass.) in PBS was administered by intraperitoneal injection. Following luciferin administration, images were acquired every minute for 15 min. Images acquired at 12 min post-luciferin injection were used for analysis. Digital images were recorded and analyzed using Living Image software (Caliper LifeSciences). Images were analyzed with a consistent region-of-interest (ROI) placed over each hindlimb to calculate a bioluminescence signal. A bioluminescence signal value of 80,000 photons/s was used to define a engraftment threshold, as this level corresponds to the histological detection of one or more GFP^+ myofiber (see FIG. 8A). BLI imaging was performed one month post-transplant unless otherwise stated.
MuSC culture and treatment. Following isolation, MuSCs were pelleted and resuspended into myogenic cell culture medium containing DMEM/F10 (50:50), 15% FBS, 2.5 ng/ml bFGF, and 1% penicillin/streptomycin. MuSCs were seeded at 1000 cells per well (24-well plate size wells, 2.0 cm^2 surface area) on laminin-tethered hydrogels of either 12 kPa (soft) or ˜10^6 kPa (rigid) rigidities. Cells were maintained at 37° C. in 5% CO2. Media was changed daily. […]

Assay [2] concerns functional MuSCs. The assay can be described thus: Limiting dilution analysis and model prediction of functional MuSCs. On the set-up: species or system mouse. The text has this:
Limiting dilution analysis and model prediction. To calculate the effective number of functional MuSCs in any transplanted cell population, the transplant engraftment efficiency was related to the number of cells transplanted (across a range of transplanted cell numbers) using an exponential stem-cell limiting dilution model:
% engraftment=100%·[1-exp [(βsample)·(# cells transplantedsample)] [eqn. 1]
where β is an exponential coefficient fit from experimental data. This model fit well to experimental data from a variety of cell conditions (R^2=0.89-1.00; see FIG. 16C). Using this model, the number of functional MuSCs (e.g. defined as equivalent to freshly isolated young MuSCs) within any given population can be calculated:
# Functional MuSCssample=(βSample/βYng,Fresh)˜(# cellssample). [eqn. 2]
The number of functional MuSCs arising from the progeny of each MuSC initially seeded in the cell culture experiments can be predicted by taking into account the measured cell proliferation in culture (see FIG. 2D). The transplant engraftment percentage of the cell culture progeny from any starting MuSC cell number can be predicted using the measured cell proliferation data and the fit exponential model parameter β:
Predicted % engraftment=100%·[1-exp [(βsample)·(starting cell #)·(proliferation fold-changesample)]]. [Eqn. 3]

For assay [3], the system named is tibialis anterior muscle of notexin-injured old mice. The assay can be described thus: In vivo force measurements after systemic SB202190 administration. Details: species or system mouse. The conditions noted are these: 5 mg/kg IP, 5 daily injections starting one day after notexin injury, two months post-injury. The method, then: Systemic SB202190 administration. Old mice were systemically administered SB202190 (5 mg/kg body weight in 0.9% NaCl/H2O) with five daily doses by IP injection starting at one day after NTX injury.
In vivo force measurements. Force measurements were performed on tibialis anterior (TA) muscles in vivo in anesthetized mice, as previously described. The hindlimb was shaved and fixed to a frame to immobilize it without compromising the blood supply to the leg. The animal was warmed on an isothermal pad and by heat lamp. A small incision was placed in the skin directly above the TA muscle. The distal tendon was sutured to a thin metal hook and then attached to a force transducer (300C-LR; Aurora Scientific, Aurora, Ontario). Distal tendons from all front lower hindlimb muscles other than TA were cut, leaving TA isolated during attachment to the force transducer. The muscles and tendons were kept moist by periodic wetting with saline (0.9% sodium chloride) solution. […] Muscle force and synchronization pulses were recorded for 2 seconds immediately prior to the stimulation and 3 seconds after the end of the stimulation. […] Data were collected with a PCI-6251 data acquisition card (National Instruments, Austin, Tex.) and analyzed in Matlab. Specific force values were calculated by normalizing the force measurements by the muscle physiological cross-sectional area (PCSA), as described previously: […]

As to `Oc1ccc(-c2nc(-c3ccncc3)c(-c3ccc(F)cc3)[nH]2)cc1` [SB202190], the “Engraftment frequency for 100-cell transplants” value in assay [1] (old MuSCs cultured one week on soft hydrogel with 10 μM, one month post-transplant) was determined as 41%; in assay [1] (young MuSCs cultured one week on soft hydrogel with 10 μM, one month post-transplant) it was 45%. In addition, the “Transplant engraftment frequency of the progeny of 10 old MuSCs” value in assay [1] (old MuSCs one week on soft hydrogels + SB (~300 cells), one month post-transplant) came to 79%. In addition, the “Extent of engraftment (BLI and histology) compared to freshly isolated MuSCs” value in assay [1] (progeny of 10 old MuSCs after one week on soft hydrogels + SB, listed as SB) is “not as robust; also recorded: slightly reduced regenerative extent”. Further, the “Improvement of transplantation function of MuSCs cultured on rigid hydrogels” value is “does not support significant improvement” in assay [1] and “did not support a similar SB-mediated improvement” in assay [1] (listed as SB). The “Proportion of functional MuSCs” value in assay [2] (old MuSCs on soft hydrogels with SB treatment, limiting dilution model) was 9%. The “Predicted transplant engraftment of the culture progeny of 10 old MuSCs” value in assay [2] (old MuSCs treated with SB, model prediction) is 76%. The “Increase in absolute number of functional stem cells relative to freshly isolated old MuSCs” value in assay [2] (old MuSCs, soft hydrogel + SB, one week, mathematical modeling) is given as 7 fold. Also, the “Improvement in the proportion of functional MuSCs” value in assay [2] (old MuSCs, soft hydrogel with vs without SB, limiting dilution model) was 10 fold. Moreover, in assay [3], the “Recovery of twitch and tetanus forces” value was “aided recovery”.
